Legend:
[1] = target: T1, Bromodomain-containing protein 2 (Homo sapiens, UniProt P25440); experiment: Binding affinity to recombinant poly-His-tagged BRD2 bromodomain 1 (unknown origin) by isothermal titration calorimetry
[2] = target: T1, Bromodomain-containing protein 2; experiment: Binding affinity to recombinant poly-His-tagged BRD2 bromodomain 2 (unknown origin) by isothermal titration calorimetry
DH5-alpha [3] = experiment: Selectivity ratio of Kd for N-terminal His6-tagged BRD2 bromodomain 1 (unknown origin) expressed in competent Escherichia coli BL21(DE3) cells to Kd for BRD2 bromodomain 1 L110A mutant (unknown origin) expressed in competent Escherichia coli DH5-alpha cells; settings: Homo sapiens
DH5-alpha [4] = experiment: Selectivity ratio for BRD2 bromodomain 2 L383A mutant (unknown origin) expressed in competent Escherichia coli DH5-alpha cells over N-terminal His6-tagged BRD2 bromodomain 2 (unknown origin) expressed in competent Escherichia coli BL21(DE3) cells by differential scanning fluorimetry; settings: Homo sapiens
DH5-alpha [5] = experiment: Selectivity ratio of Kd for N-terminal His6-tagged BRD2 bromodomain 2 (unknown origin) expressed in competent Escherichia coli BL21(DE3) cells to Kd for BRD2 bromodomain 2 L383A mutant (unknown origin) expressed in competent Escherichia coli DH5-alpha cells; settings: Homo sapiens
DH5-alpha [6] = experiment: Selectivity ratio for BRD2 bromodomain 1 L110A mutant (unknown origin) expressed in competent Escherichia coli DH5-alpha cells over N-terminal His6-tagged BRD2 bromodomain 1 (unknown origin) expressed in competent Escherichia coli BL21(DE3) cells by differential scanning fluorimetry; settings: Homo sapiens

T1 sequence (P25440 whole entry): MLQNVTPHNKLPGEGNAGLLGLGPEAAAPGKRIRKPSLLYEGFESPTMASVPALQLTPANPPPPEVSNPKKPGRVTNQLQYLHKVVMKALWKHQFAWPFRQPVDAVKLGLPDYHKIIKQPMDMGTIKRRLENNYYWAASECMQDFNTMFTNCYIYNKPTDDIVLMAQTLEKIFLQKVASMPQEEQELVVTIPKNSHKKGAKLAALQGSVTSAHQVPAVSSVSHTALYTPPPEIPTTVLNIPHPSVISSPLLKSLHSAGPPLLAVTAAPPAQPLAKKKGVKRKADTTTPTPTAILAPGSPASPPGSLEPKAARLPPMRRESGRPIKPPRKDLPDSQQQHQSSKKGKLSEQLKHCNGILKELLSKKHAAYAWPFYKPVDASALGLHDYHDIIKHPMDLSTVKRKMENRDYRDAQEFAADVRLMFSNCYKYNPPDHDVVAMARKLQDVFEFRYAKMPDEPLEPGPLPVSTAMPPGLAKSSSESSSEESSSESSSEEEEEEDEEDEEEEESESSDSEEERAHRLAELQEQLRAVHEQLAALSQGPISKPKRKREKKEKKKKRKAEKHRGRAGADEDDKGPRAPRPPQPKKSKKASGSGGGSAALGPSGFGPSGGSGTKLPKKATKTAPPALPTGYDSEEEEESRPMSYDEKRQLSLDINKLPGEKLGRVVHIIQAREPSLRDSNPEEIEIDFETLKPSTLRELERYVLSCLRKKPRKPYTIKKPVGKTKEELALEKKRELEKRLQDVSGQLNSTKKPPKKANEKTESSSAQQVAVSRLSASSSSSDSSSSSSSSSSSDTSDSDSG

Structure (SMILES) | Kd [1] [µM] | Kd [2] [µM] | Selectivity ratio (DH5-alpha [3]) | Selectivity ratio (DH5-alpha [4]) | Selectivity ratio (DH5-alpha [5]) | Selectivity ratio (DH5-alpha [6])
CC(=O)NCCCCn1c2c(c3ccccc31)C(=O)NCC2 | 8.6 | > 300 | – | – | – | –
CC[C@@H](C(=O)OC)[C@@H]1N=C(c2ccc(Cl)cc2)c2cc(OC)ccc2-n2c(C)nnc21 | – | – | < 540 | < 540 | < 540 | < 540

— ChEMBL document CHEMBL3769380, “New Synthetic Routes to Triazolo-benzodiazepine Analogues: Expanding the Scope of the Bump-and-Hole Approach for Selective Bromo and Extra-Terminal (BET) Bromodomain Inhibition” (J Med Chem, 2016)
